The test system of one experiment is GP2d cells (KRAS G12D). Nature of the experiment: Cell-based pERK HTRF assay in GP2d cell (Biological Example 2). Conditions: GP2d (KRAS G12D) cells. The essentials:
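Treatment with test compounds lasted one hour in DMEM containing 10% FBS, with DMSO held at 0.25%. Dilution series: 9 points, half-log spacing, highest 1 μM or 100 nM. Lysates were incubated 4–24 h at room temperature with antibody mix, then HTRF was read at 320 nm excitation.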
On the technique in general: In TR-FRET formats the signal depends on donor and acceptor labels being close together.

Experiment [1] has as its target T1, Avi-KRAS G12D (2-169) GTP/RAF1 RBD-3xFLAG (51-131) (Homo sapiens, UniProt P01116, G12D).
T1 construct: Avi-KRAS G12D (2-169)
Nature of the experiment: Raf1-KRAS G12D-GTP disruption HTRF assay (Biological Example 3). The format is binding. Conditions: KRAS G12D, GTP-loaded. The essentials: (§1)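 50 nM Avi-KRAS (2-169) GTP/RAF1 RBD complex; 75 nM RBD-Avi; pH 7.5 Tris buffer, 10% DMSO; cpd 30 μM top, 3x, 10 pts; 1 h RT, 700 rpm; HTRF, % of DMSO.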

In experiment [2] the target is T2, Avi-KRAS G12C (2-169) GTP/RAF1 RBD-3xFLAG (51-131) (Homo sapiens, UniProt P01116, G12C).
T2 construct: Avi-KRAS G12C (2-169)
Nature of the experiment: Raf1-KRAS G12C-GTP disruption HTRF assay (Biological Example 3). Conditions: KRAS G12C, GTP-loaded. The format is binding. In outline:
as §1

For experiment [3], the target named is T3, Avi-KRAS G12V (2-169) GTP/RAF1 RBD-3xFLAG (51-131) (Homo sapiens, UniProt P01116, G12V).
T3 construct: Avi-KRAS G12V (2-169)
Briefly: Raf1-KRAS G12V-GTP disruption HTRF assay (Biological Example 3). The format is binding. The note with it: KRAS G12V, GTP-loaded. The essentials: as §1

Experiment [4] concerns the target T4, Avi-KRAS WT (2-169) GTP/RAF1 RBD-3xFLAG (51-131) (Homo sapiens, UniProt P01116).
T4 construct: Avi-KRAS WT (2-169)
Nature of the experiment: Raf1-KRAS WT-GTP disruption HTRF assay (Biological Example 3). Conditions: KRAS WT, GTP-loaded. The format is binding. In outline:
as §1

The next experiment relates to SW620 cells (KRAS G12V). Briefly: Cell-based pERK HTRF assay in SW620 cell (Biological Example 4). The essentials: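 This assay measures inhibition of ERK phosphorylation downstream of KRAS G12V in intact SW620 cells. Compounds are applied for 4 h over nine half-log concentrations starting at 1 μM, and pERK is quantified by HTRF.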
Setting [5] is: Homo sapiens, SW-620, SW620 (KRAS G12V) cells.

Data on 15 molecules can be found in US20260042764A1, “COMPOSITIONS AND METHODS FOR INHIBITION OF KRAS” (TheRas, Inc., priority 2022, published 2026).

SMILES strings stand for the structures.

T2 sequence (P01116 2-169 isoform P01116-2 G12C): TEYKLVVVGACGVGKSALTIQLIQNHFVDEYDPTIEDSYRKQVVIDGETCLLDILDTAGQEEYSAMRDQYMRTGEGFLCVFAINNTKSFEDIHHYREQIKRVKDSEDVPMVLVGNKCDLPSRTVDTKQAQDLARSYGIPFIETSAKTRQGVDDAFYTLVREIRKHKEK
T3 sequence (P01116 2-169 isoform P01116-2 G12V): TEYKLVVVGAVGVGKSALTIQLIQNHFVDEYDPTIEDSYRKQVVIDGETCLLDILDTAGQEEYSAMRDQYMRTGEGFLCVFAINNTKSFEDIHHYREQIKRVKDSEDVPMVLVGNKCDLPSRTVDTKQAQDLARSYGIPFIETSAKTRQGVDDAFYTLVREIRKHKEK
T1 sequence (P01116 2-169 isoform P01116-2 G12D): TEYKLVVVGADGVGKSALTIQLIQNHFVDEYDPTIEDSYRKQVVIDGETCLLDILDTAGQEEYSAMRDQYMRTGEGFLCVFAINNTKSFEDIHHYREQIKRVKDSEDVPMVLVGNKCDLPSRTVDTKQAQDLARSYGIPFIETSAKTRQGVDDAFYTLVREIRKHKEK
T4 sequence (P01116 2-169 isoform P01116-2): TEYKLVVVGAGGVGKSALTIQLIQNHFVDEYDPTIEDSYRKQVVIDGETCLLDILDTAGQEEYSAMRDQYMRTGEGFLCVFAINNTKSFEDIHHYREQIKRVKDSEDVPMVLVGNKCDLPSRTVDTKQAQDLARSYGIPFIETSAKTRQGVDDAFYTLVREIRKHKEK

By IC50 is commonly meant the midpoint of a concentration-inhibition curve. High values mean weaker potency in that assay, low ones greater potency in that assay. Regarding `CCN(c1nc(OC[C@@]23CCCN2C[C@H](F)C3)nc2c(F)c(-c3ccc(F)c4sc(N)c(C#N)c34)c(C(F)(F)F)cc12)[C@H]1C[C@H](C)N(C(=O)c2cocn2)C1` (atropisomer, axis not shown) [Compound 914], the IC50 in the experiment with GP2d cells (KRAS G12D) (GP2d) is below 100 nM; in experiment [1], 100 to 1000 nM; in experiment [2] it was 100 to 1000 nM; in experiment [3], at most 100 nM; in experiment [4], 100 to 1000 nM; in the experiment on SW620 cells (KRAS G12V) (setting [5]) it was below 100 nM.
For `CN(c1nc(OC[C@@]23CCCN2C[C@H](F)C3)nc2c(F)c(-c3ccc(F)c4sc(N)c(C#N)c34)c(C(F)(F)F)cc12)[C@H]1CCCc2ccncc21` (atropisomer, axis not shown) [Compound 971], the IC50 in the experiment with GP2d cells (KRAS G12D) (GP2d) is below 100 nM; in experiment [1], above 10000 nM; in experiment [2], above 10000 nM; in experiment [3], above 10000 nM; in experiment [4], above 10000 nM; with SW620 cells (KRAS G12V) (setting [5]), below 100 nM.
In the case of `CCN(c1nc(OC[C@@]23CCCN2C[C@H](F)C3)nc2c(F)c(-c3ccc(F)c4sc(N)c(C#N)c34)c(C(F)(F)F)cc12)[C@H]1C[C@@H](C(=O)N(C)C)C1` (atropisomer, axis not shown) [Compound 957], the IC50 with GP2d cells (KRAS G12D) is below 100 nM; in experiment [1], 100 to 1000 nM; in experiment [2] it was 1000 to 10000 nM; in experiment [3], 1000 to 10000 nM; in experiment [4], 1000 to 10000 nM; with SW620 cells (KRAS G12V) (SW620 (KRAS G12V) cells), below 100 nM.
Turning to `CCN(c1nc(OC[C@@]23CCCN2C[C@H](F)C3)nc2c(F)c(-c3ccc(F)c4sc(N)c(C#N)c34)c(C(F)(F)F)cc12)[C@H]1C[C@H](C)N(C(=O)[C@@H]2C[C@H]2F)C1` (atropisomer, axis not shown; (aS)) [Compound 893, 2-amino-4-((S)-4-(ethyl((3S,5S)-1-((1S,2R)-2-fluorocyclopropane-1-carbonyl)-5-methylpyrrolidin-3-yl)amino)-8-fluoro-2-(((2R,7aS)-2-fluorotetrahydro-1H-pyrrolizin-7a (5H)-yl)methoxy)-6-(trifluoromethyl)quinazolin-7-yl)-7-fluorobenzo[b]thiophene-3-carbonitrile], the IC50 with GP2d cells (KRAS G12D) (GP2d) is below 100 nM; in experiment [1], 100 to 1000 nM; in experiment [2], 100 to 1000 nM; in experiment [3] it was at most 100 nM; in experiment [4], 100 to 1000 nM; in the experiment on SW620 cells (KRAS G12V) (setting [5]), below 100 nM.
Consider `CCN(c1nc(OC[C@@]23CCCN2C[C@H](F)C3)nc2c(F)c(-c3ccc(F)c4sc(N)c(C#N)c34)c(C(F)(F)F)cc12)[C@@H]1CCN(C(=O)[C@@H]2CCO2)[C@@H]1C` (atropisomer, axis not shown) [Compound 931], for which the IC50 was below 100 nM in the experiment with GP2d cells (KRAS G12D) (GP2d); 100 to 1000 nM in experiment [1]; 100 to 1000 nM in experiment [2]; 100 to 1000 nM in experiment [3]; 100 to 1000 nM in experiment [4]; below 100 nM in the experiment with SW620 cells (KRAS G12V) (setting [5]).
With `CCN(c1nc(OC[C@@]23CCCN2C[C@H](F)C3)nc2c(F)c(-c3ccc(F)c4sc(N)c(C#N)c34)c(C(F)(F)F)cc12)[C@H]1CCN(C(=O)OC)[C@@H]1COC` (atropisomer, axis not shown) [Compound 923], the IC50 in the experiment with GP2d cells (KRAS G12D) (GP2d) was below 100 nM; in experiment [1], 100 to 1000 nM; in experiment [2], 1000 to 10000 nM; in experiment [3] it was 100 to 1000 nM; in experiment [4], 100 to 1000 nM; in the experiment with SW620 cells (KRAS G12V) (setting [5]), below 100 nM.
On to `CCN(c1nc(OC[C@@]23CCCN2C[C@H](F)C3)nc2c(F)c(-c3ccc(F)c4sc(N)c(C#N)c34)c(C(F)(F)F)cc12)[C@H]1CCN(C(=O)c2ncoc2C)C1` (atropisomer, axis not shown) [Compound 901], for which the IC50 in the experiment on GP2d cells (KRAS G12D) (GP2d) is below 100 nM; in experiment [1], 100 to 1000 nM; in experiment [2], 100 to 1000 nM; in experiment [3], 100 to 1000 nM; in experiment [4], 100 to 1000 nM; in the experiment on SW620 cells (KRAS G12V) (setting [5]), below 100 nM.
Consider `CCN(c1nc(OC[C@@]23CCCN2C[C@H](F)C3)nc2c(F)c(-c3ccc(F)c4sc(N)c(C#N)c34)c(C(F)(F)F)cc12)[C@H]1CCN(C(=O)O[C@H]2CCCOC2)C1` (atropisomer, axis not shown) [Compound 822], for which the IC50 in the experiment on GP2d cells (KRAS G12D) (GP2d) was below 100 nM; in experiment [1], 100 to 1000 nM; in experiment [2], 100 to 1000 nM; in experiment [3], 100 to 1000 nM; in experiment [4] it was 100 to 1000 nM; in the experiment on SW620 cells (KRAS G12V) (setting [5]), below 100 nM.
For `CCN(c1nc(OC[C@@]23CCCN2C[C@H](F)C3)nc2c(F)c(-c3ccc(F)c4sc(N)c(C#N)c34)c(C(F)(F)F)cc12)[C@H]1C[C@H](C)N(C(=O)C2CC(OC)C2)C1` (stereo partly drawn) [Compound 928], the IC50 was below 100 nM with GP2d cells (KRAS G12D) (GP2d); 100 to 1000 nM in experiment [1]; 100 to 1000 nM in experiment [2]; 100 to 1000 nM in experiment [3]; 100 to 1000 nM in experiment [4]; below 100 nM with SW620 cells (KRAS G12V) (setting [5]).
On to `CCN(c1nc(OC[C@@]23CCCN2C[C@H](F)C3)nc2c(F)c(-c3ccc(F)c4sc(N)c(C#N)c34)c(C(F)(F)F)cc12)[C@@H]1CCN(c2cccn(C)c2=O)C1` [Compound 964], for which the IC50 in the experiment on GP2d cells (KRAS G12D) (GP2d) was below 100 nM; in experiment [1], 1000 to 10000 nM; in experiment [2], 1000 to 10000 nM; in experiment [3], 1000 to 10000 nM; in experiment [4] it was 1000 to 10000 nM; with SW620 cells (KRAS G12V) (setting [5]) it was below 100 nM.
With `CCN(c1nc(OC[C@@]23CCCN2C[C@H](F)C3)nc2c(F)c(-c3ccc(F)c4sc(N)c(C#N)c34)c(C(F)(F)F)cc12)[C@H]1C[C@H]2C[C@H](C)C(=O)N2C1` (atropisomer, axis not shown) [Compound 891], the IC50 with GP2d cells (KRAS G12D) (GP2d) was below 100 nM; in experiment [1], at most 100 nM; in experiment [2], at most 100 nM; in experiment [3] it was at most 100 nM; in experiment [4], at most 100 nM; in the experiment on SW620 cells (KRAS G12V) (setting [5]), below 100 nM.
With `CCN(c1nc(OC[C@@]23CCCN2C[C@H](F)C3)nc2c(F)c(-c3ccc(F)c4sc(N)c(C#N)c34)c(C(F)(F)F)cc12)[C@H]1CCN(C(=O)c2ncc(C#N)s2)C1` (atropisomer, axis not shown) [Compound 956], the IC50 with GP2d cells (KRAS G12D) (GP2d) is below 100 nM; in experiment [1], 100 to 1000 nM; in experiment [2], 100 to 1000 nM; in experiment [3] it was 100 to 1000 nM; in experiment [4], 1000 to 10000 nM; with SW620 cells (KRAS G12V) (setting [5]), below 100 nM.
Take `CCN(c1nc(OC[C@@]23CCCN2C[C@H](F)C3)nc2c(F)c(-c3ccc(F)c4sc(N)c(C#N)c34)c(C(F)(F)F)cc12)[C@H]1CCN(C(=O)[C@@H]2CCO2)[C@@H]1C` (atropisomer, axis not shown) [Compound 918]: the half-inhibitory concentration (IC50) is below 100 nM in the experiment on GP2d cells (KRAS G12D) (GP2d); at most 100 nM in experiment [1]; at most 100 nM in experiment [2]; at most 100 nM in experiment [3]; at most 100 nM in experiment [4]; below 100 nM in the experiment on SW620 cells (KRAS G12V) (setting [5]).
Turning to `CCN(c1nc(OC[C@@]23CCCN2C[C@H](F)C3)nc2c(F)c(-c3ccc(F)c4sc(N)c(C#N)c34)c(C(F)(F)F)cc12)[C@H]1CCN(C(=O)C2CC(OC)C2)C1` (stereo partly drawn) [Compound 844], the IC50 is below 100 nM with GP2d cells (KRAS G12D) (GP2d); 100 to 1000 nM in experiment [1]; 100 to 1000 nM in experiment [2]; 100 to 1000 nM in experiment [3]; 100 to 1000 nM in experiment [4]; below 100 nM with SW620 cells (KRAS G12V) (setting [5]).
Regarding `CCN(c1nc(OC[C@@]23CCCN2C[C@H](F)C3)nc2c(F)c(-c3ccc(F)c4sc(N)c(C#N)c34)c(C(F)(F)F)cc12)[C@H]1CCN(C(=O)OC2CC(F)(F)C2)C1` (atropisomer, axis not shown) [Compound 830], the IC50 was below 100 nM in the experiment on GP2d cells (KRAS G12D) (GP2d); 100 to 1000 nM in experiment [1]; 100 to 1000 nM in experiment [2]; 100 to 1000 nM in experiment [3]; 100 to 1000 nM in experiment [4]; below 100 nM in the experiment on SW620 cells (KRAS G12V) (setting [5]).
